Assay results taken from patent publication US6451330B1, “High skin friction cosmetic creams with retinoids” (Unilever Home & Personal Care, USA, division of Conopco, …, priority 2000, dated 2002).

Assay: Retinoid solubility in oil
Type: physicochemical
Method: Retinoid solubility in oil is determined by the following procedure. A known weight of pure retinoid in excess of the expected solubility limit in the oil is added in an oil and methanol is added to the mixture to dissolve all retinoid crystals. Nitrogen sparging is used to ensure all methanol has evaporated from the oil. Retinoid is allowed to recrystallize overnight. The sample is filtered through a 0.45 micron filter. Known dilutions of the filtrate in isopropanol are measured by UV spectroscopy at an appropriate wavelength (325 nm for retinol) and the concentration of retinoid determined against calibration standards of retinoid in isopropanol.

## CC1=C(/C=C/C(C)=C/C=C/C(C)=C/CO)C(C)(C)CCC1 [retinol]
Retinol crystals in C12-15 Alkyl benzoate
  SOLUBILITY, WT %: 85 WT %
Retinol crystals in Cetiol OE
  SOLUBILITY, WT %: 45 WT %
Retinol crystals in Cyclomethicone
  SOLUBILITY, WT %: 2.7 WT %
Retinol crystals in Dimethicone
  SOLUBILITY, WT %: 0.49 WT %
Retinol crystals in Isostearyl palmitate
  SOLUBILITY, WT %: 44 WT %
Retinol crystals in Mineral oil
  SOLUBILITY, WT %: 34.2 WT %
Retinol crystals in Triolein/Squalene (6:1)
  SOLUBILITY, WT %: 56.4 WT %
